Reference: patent US11383003B2, “Water soluble farnesol analogs and their use” (Kimberly-Clark Worldwide, Inc., priority 2012, dated 2022)

Columns and labels:
[1] = system: C. elegans glp4; sek1 infected with C. albicans SC5314; assay: Death rate of C. elegans glp4; sek1 infected with C. albicans SC5314, 96 well plates; assay type: in vivo, Caenorhabditis elegans
Experimental: Caenorhabditis elegans glp4; sek1 was used as the model for […]. Breger et al. (Breger, J.; Fuchs, B. B.; Aperis, G.; Moy, T. I., Ausubel, F. M., Mylonakis, E.; “Antifungal chemical compounds identified using a C. elegans pathogenicity assay.” PLoS Pathogens 3: 168-178; 2007) reported that the glp-4 mutation rendered the strain incapable of producing progeny at 25° C., and the sek-1 mutation enhanced the sensitivity of the strain to various pathogens, thereby decreasing the time for screening assays. It was observed that no progenies was produced by the Caenorhabditis elegans glp4; sek1 strain after 3 d incubation at 25° C.
The synchronization of C. elegans was achieved by collecting the eggs and arresting the larvae at L1 stage. The commonly used bleach treatment was able to release the eggs from the adult worms. However, it was observed that the released eggs were not always able to hatch after treated with sodium hypochlorite (0.2, 0.3, 0.4, 0.5, 0.7 or 1%) for 3-5 min. A modified egg laying method was developed to synchronize worms to L1 stage. In brief, stock cultures of C. elegans glp4; sek1, maintained on Nematode Growth Media plates (NGM plates), were subcultured onto NGM plates with OP 50 and incubated at 15° C. for 6-9 days. Then a chunk (1 cm^2) of agar with gravid adults was subcultured again onto NGM plates with OP50 and incubated at 15° C. After incubation of 3-7 days, the worms were gently washed off with 3 ml of M 9 buffer on the rotating platform (100 rpm). The plate was tilted on its lid to allow the liquid and worms drain to one side of the plate. The liquid and worms were aspirated off. The plate was washed again with M9 buffer three more times to remove OP50 as much as possible. After washing, the plate was incubated at 25° C. overnight to let the eggs hatch overnight. Since there was no OP50, the larvae were arrested at the L1 stage. The live C. elegans glp4; sek1 was quite curvy; whereas the dead C. elegans glp4; sek1 tended to be straight, and in most cases the dead worms with the hyphae of C. albicans pieced through the body. The curvy shape and movement after shaking were used as the criteria for live.
The In vitro screening assay, based on the method of Tampakakis et al (Tampakakis, E.; Okoli, I.; Mylonakis, E.; “A C. elegans-based, whole animal, in vivo screen for the identification of antifungal compounds.” Nature Protocols 3:1925-1931; 2008), is described as follows:
L1 worms, which were prepared by the modified egg-laying method, were collected by centrifugation at 675 g for 30 s at room temperature, and the supernatant was removed. Worms were resuspended in M 9 buffer and inoculated on NGM agar plates with OP50, ˜1000 worms per plate. After 2-3 days incubation at 25° C., the worms were washed off with M 9 buffer for the […] assay.
The control were worms fed on OP50.

C. elegans glp4; sek1 = assay: Toxicity: death rate of C. elegans glp4; sek1 fed on E. coli OP50; details: for Death rate (%): 2 mM, worms fed on E. coli OP50, 25° C.
Experimental: The toxicity of the selected compounds/products were tested using the C. elegans glp4; sek1 fed on E. coli OP50 (Table 5).
Stock cultures of C. albicans SC 5314 was subcultured into 3 ml of YPD broth and incubated at 30° C. Then the overnight culture in broth was spread onto YPD agar, and incubated at 30° C. The 24 h old lawn of SC5314 was used to feed worms for 2 h at 25° C. The control were worms fed on OP50.
The worms were washed off the YPD plates and washed twice with M9 buffer. The worms were resuspended in screening media, M9 buffer with 0.3% Tween 80. The worm suspension (50 μl) was dispensed into the wells of 96-well plates, 20-30 worms/well. Aliquots (50 μl) of compounds in screening media were added to wells, 5 wells each compound. The 96 well plates were incubated at 25° C. for up to 5 days. Live and dead worms were counted during incubation, and the death rates of worms were calculated.

C. albicans SC5314 [2] = assay: Germ tube formation (GTF %) in vitro screening, GlcNAc-triggered differentiation assay; assay type: cell-based, Candida albicans
Experimental: Based on the results in FIG. 3, single cell suspensions of SC5314 was prepared as follows. Stock culture of C. albicans SC5314 was streaked onto YPD agar (YPDA) and incubated at 30° C. overnight. Single colonies were subcultured in YPD broth (YPDB) and incubated 30° C., 200 rpm overnight. Overnight culture in YPDB was subcultured in YPD broth again and incubated 30° C., 200 rpm 48 h. Cells were collected by centrifugation (4000 g 10 min) at 4° C., washed three times with sterile water, and then resuspended in sterile water a final concentration of 10^9 colony-forming unit/ml (cfu/ml). The suspension were stored at 4° C. at least 1 d, then subcultured into YPDB to a final concentration of 10^6 cfu/ml. After 48 h incubation, cell suspension was examined under the microscope for single cell percentage. When the single cell percentage exceeded 80%, cells were collected and washed three times with water, then resuspended in water to a final concentration of 10^9 cfu/ml, and stored at 4° C. for no more than a month.
Two approaches were taken to determine the percentage of cells with germ tubes formed (GTF %). One way was to count the total cells at the start of incubation, and count the ungerminated cells after incubation, then calculate the GTF % as (1—ungerminated cells/total cells at 0 h)*100. Another way was to store the samples at 15° C. for 20 h after incubation, then count the germinated cells and total cells after disaggregation, then calculated the GTF % as (germinated cells/total cells after storage)*100. […] Therefore, for practical purposes, the GTF % was determined by the first method, that is, GTF %=(1—ungerminated cells/total cells at 0 h)*100, for the in vitro screening discussed herein.
A screening medium, containing 11 mM imidazole buffer, 3 mM MgSO4, and 2.6 mM N-acetyl-D-glucosamine (GlcNAc) has been used to study the effect of farnesol analogs on the germ tube formation of C. albicans. Here, the germ tube formation of C. albicans in modified screening media was assessed with various concentrations of imidazole buffer (10 mM, 30 mM and 50 mM) and MgSO4 (0.5 mM, 1.5 mM and 3 mM). […] It took 2 h to 3 h for the GTF % to reach above 80%. For practical purposes, the screening medium, containing 11 mM imidazole buffer, 0.5 mM MgSO4, and 2.6 mM N-acetyl-D-glucosamine (GlcNAc) was adopted for in vitro screening the quorum sensing inhibitory effect of farnesol compounds.
The in vitro screening assay was based on the N-acetylglucosamine (GlcNAc)-triggered differentiation assay (Hornby et al., “Quorum sensing in the dimorphic fungus Candida albicans is mediated by farnesol;” Applied and Environmental Microbiology 67:2982-2992; 2001), which included 0.56 ml of 0.1 M imidazole buffer (pH 6.5), 0.15 ml of 0.1 M MgSO4, 0.13 ml of 0.1 M GlcNAc, and 4.16 ml of sterilized water. Bioassays of quorum sensing candidates were conducted by the addition of the chemical, as a solution in 100% methanol, to the bioassay media; the final concentration of methanol was no greater than 1%.

C. albicans SC5314 [3] = assay: Effect of quorum sensing molecules on lag phase/growth of C. albicans in YPD broth; assay type: cell-based, Candida albicans; details: 100 μM, 37° C., 6 h
[4] = cited from earlier work
[5] = 0.4 mM, 4 days, 25° C., two replicates
[6] = 0.4 mM, 5 days, 25° C., two replicates
[7] = 1.0 mM, 4 days, 25° C., two replicates
[8] = 1.0 mM, 5 days, 25° C., two replicates
[9] = 2.0 mM, 4 days, 25° C., two replicates (* three)
[10] = 2.0 mM, 5 days, 25° C., two replicates (* three)
[11] = 3.0 mM, 4 days, 25° C., two replicates
[12] = 3.0 mM, 5 days, 25° C., two replicates

Row | SMILES | % change in the death rate compared to the control [1, 5] | % change in the death rate compared to the control [1, 6] | % change in the death rate compared to the control [1, 7] | % change in the death rate compared to the control [1, 8] | % change in the death rate compared to the control [1, 9] | % change in the death rate compared to the control [1, 10] | % change in the death rate compared to the control [1, 11] | % change in the death rate compared to the control [1, 12] | Death rate (%) (C. elegans glp4; sek1) | GTF % (mean ± SEM, n = 2) (C. albicans SC5314 [2]; 100 μM, * one replicate) | GTF % (mean ± SEM, n = 2) (C. albicans SC5314 [2]; 200 μM) | effect on the growth of C. albicans SC5314 (in words) (C. albicans SC5314 [3]) | also measured
1 | CC(C)=CCC/C(C)=C/CC/C(C)=C/COC(=O)CCC(=O)OCCO [#4 synthesized analog] | 8 ± 8% | 7 ± 1% | −3 ± 3% | −1 ± 4% | 4 ± 8% | 8 ± 11% | 7 ± 4% | 10 ± 5% | 2% | 59.2 ± 4.8% | 31.1 ± 8.2% | – | effect on death rate of infected C. elegans (in words) ([1]; 0.4 mM to 3 mM (the tested four concentrations)): did not have significant effect on the death of the worms
2 | CC(C)=CCC/C(C)=C/CC/C(C)=C/COC(=O)CCC(=O)O [#1 synthesized analog] | −43 ± 8% | −30 ± 2% | −33 ± 5% | −29 ± 11% | −23 ± 4% | −34 ± 11% | 20 ± 3% | 10 ± 9% | 3.3 ± 1.2% | 55.9 ± 8.2% | 31.2 ± 5.0% | – | effect on death rate of infected C. elegans (in words) ([1]; 0.4 mM to 2 mM): significantly reduced the death rate; effect on death rate of infected C. elegans (in words) ([1]; 3 mM): increased the death rate; effect on death rate of infected C. elegans (in words) ([1]; key finding, no concentration stated): significantly reduced the death rate
3 | OCCc1ccc(O)cc1 [tyrosol] | – | – | – | – | – | – | – | – | – | – | – | little effect on the growth | –
4 | CC(C)=CCC/C(C)=C/CC/C(C)=C/CO [E,E-farnesol, reference compound] | – | – | – | – | – | – | – | – | 7% | 44.0 ± 3.1% | 18.4 ± 2.9% | little effect on the growth | solubility in water (in words) [4]: insoluble in water; % change in the death rate compared to the control ([1]; 0.4 mM, day 1, initial screening): −4%; % change in the death rate compared to the control ([1]; 0.4 mM, day 4, initial screening): −16%; % change in the death rate compared to the control ([1]; 0.4 mM, day 5, initial screening): −19%; effect on death rate of infected C. elegans (in words) ([1]; 0.4 mM, initial screening): reduced the death rate slightly; % change in the death rate compared to the control ([1]; 1 mM, day 1, initial screening): −12%; % change in the death rate compared to the control ([1]; 1 mM, day 4, initial screening): 14%; % change in the death rate compared to the control ([1]; 1 mM, day 5, initial screening): 10%; % change in the death rate compared to the control ([1]; 2 mM, day 1, initial screening): −8%; % change in the death rate compared to the control ([1]; 2 mM, day 4, initial screening): 19%; % change in the death rate compared to the control ([1]; 2 mM, day 5, initial screening): 8%; % change in the death rate compared to the control ([1]; 3 mM, day 1, initial screening): −21%; % change in the death rate compared to the control ([1]; 3 mM, day 4, initial screening): 23%; % change in the death rate compared to the control ([1]; 3 mM, day 5, initial screening): 12%; effect on death rate of infected C. elegans (in words) ([1]; higher concentration (above 0.4 mM), initial screening): resulted in higher death rate of the worm; toxicity to C. elegans fed on E. coli OP50 (in words) (C. elegans glp4; sek1; in vivo): slightly higher than the control
